Measured values as given in the supplement of paper PMC4862054.

Tests used:
Assay in all cases: normalised response (% of control), CellTiter-Glo; higher = more viable cells (100 = DMSO, 0 = benzethonium chloride kill control)
Conditions in all cases: incubation time: 72 h
BT-474 = test system: BT-474
Description: (§1)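 DSRT, 72 h incubation, CellTox Green / CellTiter-Glo readout. Signal is normalised to DMSO and benzethonium chloride controls. Value is the normalised response at the highest dose.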

CAL-85-1 = test system: CAL-85-1
Description: as §1

HCC1143 = test system: HCC1143
Description: as §1

CAL-51 = test system: CAL-51
Description: as §1

MDA-MB-436 = test system: MDA-MB-436
Description: as §1

HCC1937 = test system: HCC1937
Description: as §1

MDA-MB-453 = test system: MDA-MB-453
Description: as §1

MDA-MB-468 = test system: MDA-MB-468
Description: as §1

MCF-10A = test system: MCF-10A
Description: as §1

HDQ-P1 = test system: HDQ-P1
Description: as §1

BT-549 = test system: BT-549
Description: as §1

CAL-148 = test system: CAL-148
Description: as §1

CAL-120 = test system: CAL-120
Description: as §1

Hs578T = test system: Hs578T
Description: as §1

DU-4475 = test system: DU-4475
Description: as §1

SK-BR-3 = test system: SK-BR-3
Description: as §1

MFM-223 = test system: MFM-223
Description: as §1

MDA-MB-231 = test system: MDA-MB-231
Description: as §1

HCC1599 = test system: HCC1599
Description: as §1

SMILES | normalised response (BT-474) [%] | normalised response (CAL-85-1) [%] | normalised response (HCC1143) [%] | normalised response (CAL-51) [%] | normalised response (MDA-MB-436) [%] | normalised response (HCC1937) [%] | normalised response (MDA-MB-453) [%] | normalised response (MDA-MB-468) [%] | normalised response (MCF-10A) [%] | normalised response (HDQ-P1) [%] | normalised response (BT-549) [%] | normalised response (CAL-148) [%] | normalised response (CAL-120) [%] | normalised response (Hs578T) [%] | normalised response (DU-4475) [%] | normalised response (SK-BR-3) [%] | normalised response (MFM-223) [%] | normalised response (MDA-MB-231) [%] | normalised response (HCC1599) [%]
Oc1ccc2c(c1)CC[C@H](c1ccccc1)[C@@H]2c1ccc(OCCN2CCCC2)cc1 [Lasofoxifene] (1000 nM) | 103 | 100 | 97.7 | 78.9 | 110 | 99.3 | 88.7 | 99.7 | 117 | 94.1 | 95.2 | 122 | 114 | 107 | 96.2 | 105 | 102 | 102 | 99.2
Cc1ccc(NC(=O)c2ccc(CN3CCN(C)CC3)cc2)cc1Nc1nc(-c2cccnc2)cs1 [Masitinib] (10000 nM) | 33.2 | 64.4 | 80.5 | 59.1 | 51.7 | 65 | 55.6 | 36.6 | 91.6 | 75.5 | 59.5 | 97.7 | 80.8 | 96.6 | 99.4 | 31.8 | 73 | 51.5 | 49.6
O=C(Nc1cccnc1)N1CCC(Cc2cccc(Oc3ccc(C(F)(F)F)cn3)c2)CC1 [PF-3845] (10000 nM) | 93.3 | 89.7 | 86.1 | 44.6 | 72.6 | 75.3 | 74.7 | 49.1 | 93.4 | 95.2 | 71.7 | 88.4 | 86 | 92.1 | 85 | 57.1 | 75.7 | 89.1 | 46.2
Cc1[nH]c2ccccc2c1CCNCc1ccc(/C=C/C(=O)NO)cc1 [Panobinostat] (1000 nM) | 7.51 | 3.87 | 13.4 | 8.29 | 30.2 | 20.7 | 2.01 | 7.12 | 11 | 26.4 | 14.4 | 0.3 | 9.89 | 5.17 | 13.9 | 0.27 | 29.4 | 6.11 | 6.35
COCC1(CO)C(=O)C2CCN1CC2 (stereo not given) [Prima-1 Met] (10000 nM) | 97.1 | 102 | 98 | 130 | 97.7 | 101 | 93.1 | 91.3 | 106 | 96.7 | 53.3 | 110 | 100 | 97.4 | 106 | 106 | 103 | 97.6 | 108
CNC(=O)c1cc(Oc2ccc(NC(=O)Nc3ccc(Cl)c(C(F)(F)F)c3)c(F)c2)ccn1 [Regorafenib] (10000 nM) | 50 | 89.3 | 77.8 | 73.8 | 46.9 | 50.1 | 59.1 | 29.8 | 46.2 | 57.4 | 43.7 | 66.7 | 49.8 | 47 | 58.2 | 51.7 | 35.9 | 61.2 | 36.5
CO[C@H]1C[C@@H]2CC[C@@H](C)[C@@](O)(O2)C(=O)C(=O)N2CCCC[C@H]2C(=O)O[C@H]([C@H](C)C[C@@H]2CC[C@@H](OP(C)(C)=O)[C@H](OC)C2)CC(=O)[C@H](C)/C=C(\C)[C@@H](O)[C@@H](OC)C(=O)[C@H](C)C[C@H](C)/C=C/C=C/C=C/1C [Ridaforolimus] (100 nM) | 81.5 | 66.8 | 67.1 | 62 | 82.5 | 69.3 | 62.8 | 56.7 | 85.1 | 79 | 54.8 | 58.8 | 64.8 | 69.6 | 72.8 | 56.9 | 68.3 | 88.4 | 108
c1ccc2c(CCNc3ccc(Nc4ccncc4)cc3)c[nH]c2c1 [Serdemetan] (10000 nM) | 51.8 | 39.1 | 52.9 | 9.77 | 44.8 | 49.7 | 42.3 | 9.51 | 52.6 | 73.6 | 23.6 | 21.3 | 67.3 | 48.1 | 0.28 | 15.5 | 58 | 41 | 14.4
CN(C)CCOc1ccc(/C(=C(/CCCl)c2ccccc2)c2ccccc2)cc1 [Toremifene] (10000 nM) | 68.5 | 85.2 | 96.8 | 98.3 | 83.7 | 49.1 | 63.8 | 75.5 | 63.5 | 87.7 | 81.8 | 86.7 | 90.7 | 82.1 | 88 | 67.1 | 48.4 | 65.9 | 77.9
CC(C)C[C@@H](C(=O)N[C@H](C(=O)OC1CCCC1)c1ccccc1)[C@H](O)C(=O)NO [Tosedostat] (10000 nM) | 24.8 | 36.6 | 55.1 | 71.9 | 64.5 | 60.4 | 47.6 | 24.6 | 76.5 | 59.9 | 42.7 | 67.1 | 47.9 | 63.1 | 87.6 | 74 | 55.9 | 35.7 | 89
